Test results from US4415574A, “Soluble N2 substituted derivatives of 2,4-diamino 5-benzyl pyrimidine, process for their preparation and medicaments containing them” (S. A. Panmedica, priority 1981, dated 1983).
Read-outs that look alike come from different tables or passages of the source.

What was measured:
[1] = system: COLI; experiment: Inhibiting minimum concentration (I.M.C.), activity relative to trimethoprime, OXOIDE COLI MEDIUM 4; assay type: cell-based; conditions: for % activity with respect to the base: ratio of I.M.C. to trimethoprime; for % activity with respect to the base corrected by molecular weight: ratio to trimethoprime
Protocol: (§1) The antibacterial activity of the derivatives according to the invention were tested in vitro by determining the inhibiting minimum concentrations (I.M.C.) on different germs.

[2] = in vivo; conditions: mouse
[3] = system: COLI; experiment: Inhibiting minimum concentration (I.M.C.), activity relative to trimethoprime, MULLER HINTON COLI MEDIUM 4; assay type: cell-based; conditions: for % activity with respect to the base: ratio of I.M.C. to trimethoprime; for % activity to the base corrected by molecular weight: ratio to trimethoprime
Protocol: as §1

[4] = system: BACIL PUMILUS; experiment: Inhibiting minimum concentration (I.M.C.), activity relative to trimethoprime, MULLER HINTON BACIL PUMILUS MEDIUM; assay type: cell-based; conditions: for % activity with respect to the base: ratio of I.M.C. to trimethoprime; for % activity with respect to the base corrected by molecular weight: ratio to trimethoprime
Protocol: as §1

[5] = system: bacteria; conditions: Gram-positive cocci, Gram-negative cocci and Gram negative bacilli; cited from earlier work
[6] = system: dehydrofolate-reductase; conditions: cited from earlier work
[7] = Solubility in water / pH of aqueous solutions; assay type: physicochemical; conditions: pH value

SMILES	% activity with respect to the base [1]	% activity with respect to the base corrected by molecular weight [1]	LD50 ([2]; iv, read-out: LD 50 I.V.)	LD50 ([2]; po, read-out: LD 50 by mouth)	% activity with respect to the base [3]	% activity to the base corrected by molecular weight [3]	% activity with respect to the base [4]	% activity with respect to the base corrected by molecular weight [4]	antibacterial activity (words, prior art) [5]	interference with dehydrofolate-reductase (words, prior art) [6]	pH at which the derivative is insoluble [7]
COc1cc(Cc2cnc(NC(c3ccco3)S(=O)(=O)O)nc2N)cc(OC)c1OC (stereo not drawn) [Example 19]	58.4%	95%	900 mg/kg	> 12500 mg/kg	69.4%	112%	49.5%	80%	–	–	–
CCOc1cc(C(Nc2ncc(Cc3cc(OC)c(OC)c(OC)c3)c(N)n2)S(=O)(=O)O)ccc1O (stereo not drawn) [Example 24f, N2 (3-Ethoxy 4-Hydroxy) Phenyl Methane Sulfonic Acid of 5-(3,4,5-Trimethoxy Benzyl) 2,4-Diamino Pyrimidine]	27.4%	63%	1000 mg/kg	> 12000 mg/kg	40.3%	92%	31.8%	73%	–	–	–
COc1ccccc1C(Nc1ncc(Cc2cc(OC)c(OC)c(OC)c2)c(N)n1)S(=O)(=O)O (stereo not drawn) [Example 15, N2 (2-Methoxy Phenyl) Methane Sulfonic Acid of 2,4-Diamino 5-(3,4,5-Trimethoxy Benzyl) Pyrimidine]	64%	107%	1000 mg/kg	> 12000 mg/kg	47%	73%	60%	106%	–	–	–
COc1cc(Cc2cnc(NC(C)S(=O)(=O)O)nc2N)cc(OC)c1OC (stereo not drawn) [Example 2, N2 Ethane Sulfonic acid of 2,4-Diamino 5-(3,4,5-Trimethoxy Benzyl) Pyrimidine]	4%	5.8%	–	–	4.3%	6.2%	2.8%	4%	–	–	–
COc1cc(Cc2cnc(NC(c3cc(OC)c(OC)c(OC)c3)S(=O)(=O)O)nc2N)cc(OC)c1OC (stereo not drawn) [Example 17, N2 (3,4,5-Trimethoxy Phenyl) Methane Sulfonic Acid 2,4-Diamino 5-(3,4,5-Trimethoxy Benzyl) Pyrimidine]	34.8%	68%	–	–	24.3%	48%	42.7%	84%	–	–	–
CCOc1cc(C(Nc2ncc(Cc3cc(OC)c(OC)c(OC)c3)c(N)n2)S(=O)(=O)O)ccc1O (stereo not drawn) [Example 24e, N2 (3-Ethoxy 4-Hydroxy) Phenyl Methane Sulfonic Acid of 5-(3,4,5-Trimethoxy Benzyl) 2,4-Diamino Pyrimidine]	21.3%	46%	–	–	40.0%	86%	40.0%	86%	–	–	–
COc1cc(Cc2cnc(NC(c3cccs3)S(=O)(=O)O)nc2N)cc(OC)c1OC (stereo not drawn) [Example 20, N2 (2-Thienyl) Methane Sulfonic Acid of 2,4-Diamino 5-(3,4,5-Trimethoxy Benzyl) Pyrimidine]	62.6%	105%	–	–	73.5%	123%	83.4%	140%	–	–	–
COc1cc(Cc2cnc(NC(c3ccccc3O)S(=O)(=O)O)nc2N)cc(OC)c1OC (stereo not drawn) [Example 25e, N2 (2-HYDROXY) PHENYL METHANE SULFONIC ACID OF 5-(3,4,5-TRIMETHOXY BENZYL) 2,4-DIAMINO PYRIMIDINE]	36.6%	74%	–	–	45.8%	93%	75.8%	154%	–	–	–
COc1cc(Cc2cnc(N)nc2N)cc(OC)c1OC [Trimethoprime, 5-(3,4,5-trimethoxybenzyl) 2,4diamino pyrimidine]	–	–	–	–	–	–	–	–	very wide-spectrum antibacterial agent	interferes with dehydrofolate-reductase	–
CCC(CC)C(Nc1ncc(Cc2cc(OC)c(OC)c(OC)c2)c(N)n1)S(=O)(=O)O (stereo not drawn) [Example 7, N2 (2-Ethyl) Butane Sulfonic Acid of 2,4-Diamino 5-(3,4,5-Trimethoxy Benzyl) Pyrimidine]	14%	23%	–	–	15.5%	25%	14%	23%	–	–	–
CCOc1cc(C(Nc2ncc(Cc3cc(OC)c(OC)c(OC)c3)c(N)n2)S(=O)(=O)O)ccc1O (stereo not drawn) [Example 24d, N2 (3-Ethoxy 4-Hydroxy) Phenyl Methane Sulfonic Acid of 5-(3,4,5-Trimethoxy Benzyl) 2,4-Diamino Pyrimidine]	13.1%	26%	–	–	23.2%	46%	37.0%	74%	–	–	–
COc1cc(Cc2cnc(NC(c3ccc4c(c3)OCO4)S(=O)(=O)O)nc2N)cc(OC)c1OC (stereo not drawn) [Example 18, N2 (3,4-Dioxy Methylene Phenyl) Methane Sulfonic Acid of 2,4-Diamino 5-(3,4,5-Trimethoxy Benzyl) Pyrimidine]	27%	48%	–	> 12000 mg/kg	14.85%	26%	21.4%	38%	–	–	–
COc1cc(Cc2cnc(NC(c3ccccn3)S(=O)(=O)O)nc2N)cc(OC)c1OC (stereo not drawn) [Example 22, N2 2-Pyridyl Methane Sulfonic Acid of 5-(3,4,5-Trimethoxy Benzyl) 2,4-Diamino Pyrimidine]	–	–	–	–	–	–	–	–	–	–	5.6
COc1cc(Cc2cnc(NC(c3cccc(Cl)c3)S(=O)(=O)O)nc2N)cc(OC)c1OC (stereo not drawn) [Example 10, N2 (3-Chloro Phenyl) Methane Sulfonic Acid of 2,4-Diamino 5-(3,4,5-Trimethoxy Benzyl) Pyrimidine]	14.1%	25%	–	–	11.6%	20%	10.4%	18%	–	–	–
COc1cc(Cc2cnc(NC(c3ccccc3)S(=O)(=O)O)nc2N)cc(OC)c1OC (stereo not drawn) [Example 8, N2 Phenyl Methane Sulfonic Acid of 2,4-Diamino 5-(3,4,5-Trimethoxy Benzyl) Pyrimidine]	13.3%	21%	–	–	10.2%	16.4%	18.4%	26%	–	–	–
COc1cc(Cc2cnc(NCS(=O)(=O)O)nc2N)cc(OC)c1OC [Example 1, N2 Methane Sulfonic Acid of 2,4-Diamino 5-(3,4,5-TrimethoxyBenzyl) Pyrimidine]	17.1%	24%	–	–	0.3%	0.4%	0.1%	–	–	–	–
COc1cc(Cc2cnc(NC(C(C)C)S(=O)(=O)O)nc2N)cc(OC)c1OC (stereo not drawn) [Example 4, N2 (2-Methyl) Propane Sulfonic Acid of 2,4-Diamino 5-(3,4,5-Trimethoxy Benzyl) Pyrimidine]	12.9%	20%	–	–	14.1%	22%	11.8%	18%	–	–	–
